# Reference: patent publication US11547697B2, “Heterocyclic compounds and uses thereof” (MILLENNIUM PHARMACEUTICALS, INC., priority 2009, dated 2023)
# Read-outs that look alike come from different tables or passages of the source.
# How the values were obtained:
# [1] = target: p110α/p85α (Homo sapiens (Human), UniProt P42336); assay: PI 3-Kinase (human) HTRF assay, p110α/p85α; assay type: biochemical
# [2] = target: p110γ (Homo sapiens (Human), UniProt P48736); assay: PI 3-Kinase (human) HTRF assay, p110γ; assay type: biochemical
# [3] = in vitro, read-out: PI3K α IC50
# [4] = in vitro, read-out: PI3K γ IC50
# p110γ, sequence (P48736 whole entry): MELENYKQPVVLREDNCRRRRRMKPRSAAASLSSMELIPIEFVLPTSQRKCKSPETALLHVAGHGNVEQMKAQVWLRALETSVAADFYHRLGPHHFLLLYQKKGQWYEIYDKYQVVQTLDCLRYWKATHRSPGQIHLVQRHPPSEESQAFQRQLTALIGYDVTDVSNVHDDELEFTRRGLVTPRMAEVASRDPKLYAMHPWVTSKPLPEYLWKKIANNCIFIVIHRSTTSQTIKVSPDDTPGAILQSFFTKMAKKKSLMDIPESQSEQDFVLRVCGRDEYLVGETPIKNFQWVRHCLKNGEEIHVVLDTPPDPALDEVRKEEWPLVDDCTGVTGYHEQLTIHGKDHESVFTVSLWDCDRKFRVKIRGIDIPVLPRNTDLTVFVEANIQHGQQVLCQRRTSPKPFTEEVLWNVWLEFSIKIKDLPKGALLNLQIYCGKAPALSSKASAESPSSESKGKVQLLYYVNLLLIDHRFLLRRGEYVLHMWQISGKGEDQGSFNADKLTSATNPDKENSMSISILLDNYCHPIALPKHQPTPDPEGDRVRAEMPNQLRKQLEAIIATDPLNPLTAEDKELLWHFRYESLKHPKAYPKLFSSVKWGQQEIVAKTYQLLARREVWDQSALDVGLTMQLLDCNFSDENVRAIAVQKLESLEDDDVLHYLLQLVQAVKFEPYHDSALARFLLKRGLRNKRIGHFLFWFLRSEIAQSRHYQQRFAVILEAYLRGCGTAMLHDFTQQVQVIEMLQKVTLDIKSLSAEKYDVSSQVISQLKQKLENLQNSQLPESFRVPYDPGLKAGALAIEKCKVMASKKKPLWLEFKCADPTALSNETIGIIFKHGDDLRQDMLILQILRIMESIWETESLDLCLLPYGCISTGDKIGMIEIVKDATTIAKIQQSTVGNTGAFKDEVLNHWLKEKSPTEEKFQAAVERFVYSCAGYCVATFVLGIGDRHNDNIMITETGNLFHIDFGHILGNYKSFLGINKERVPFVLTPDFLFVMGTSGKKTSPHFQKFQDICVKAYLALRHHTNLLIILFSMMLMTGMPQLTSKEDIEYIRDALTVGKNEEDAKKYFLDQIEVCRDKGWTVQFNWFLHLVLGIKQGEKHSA
# p110α/p85α, sequence (P42336 whole entry): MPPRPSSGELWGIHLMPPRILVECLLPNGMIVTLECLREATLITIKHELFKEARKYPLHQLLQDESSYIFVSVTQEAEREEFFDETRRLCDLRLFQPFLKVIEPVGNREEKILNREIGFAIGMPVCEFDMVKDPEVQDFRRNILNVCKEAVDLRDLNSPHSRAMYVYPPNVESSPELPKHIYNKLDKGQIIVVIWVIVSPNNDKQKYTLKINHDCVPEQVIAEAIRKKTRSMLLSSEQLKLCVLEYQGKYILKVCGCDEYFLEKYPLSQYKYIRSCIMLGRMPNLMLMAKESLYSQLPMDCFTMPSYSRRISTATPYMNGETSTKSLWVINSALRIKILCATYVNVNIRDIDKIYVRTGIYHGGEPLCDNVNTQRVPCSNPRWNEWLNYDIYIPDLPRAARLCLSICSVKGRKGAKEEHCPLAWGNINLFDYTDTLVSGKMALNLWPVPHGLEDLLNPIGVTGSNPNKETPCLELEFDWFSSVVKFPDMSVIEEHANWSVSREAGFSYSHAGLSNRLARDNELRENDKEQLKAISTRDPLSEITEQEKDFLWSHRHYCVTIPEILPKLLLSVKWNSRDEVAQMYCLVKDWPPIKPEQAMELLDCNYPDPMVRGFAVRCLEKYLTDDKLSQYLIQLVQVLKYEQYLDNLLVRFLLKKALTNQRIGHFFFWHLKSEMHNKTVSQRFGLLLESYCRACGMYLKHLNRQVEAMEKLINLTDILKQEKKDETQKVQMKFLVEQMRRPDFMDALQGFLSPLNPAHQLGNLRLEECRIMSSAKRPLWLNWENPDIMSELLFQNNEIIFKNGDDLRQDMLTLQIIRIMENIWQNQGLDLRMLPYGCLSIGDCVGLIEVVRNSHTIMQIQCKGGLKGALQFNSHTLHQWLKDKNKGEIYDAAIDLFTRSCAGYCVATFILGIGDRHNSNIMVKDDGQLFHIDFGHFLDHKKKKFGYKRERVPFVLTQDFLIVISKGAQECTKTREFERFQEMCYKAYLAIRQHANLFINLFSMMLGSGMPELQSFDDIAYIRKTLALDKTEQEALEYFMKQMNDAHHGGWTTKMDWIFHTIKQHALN
# p110α/p85α, sequence (P27986 whole entry partner): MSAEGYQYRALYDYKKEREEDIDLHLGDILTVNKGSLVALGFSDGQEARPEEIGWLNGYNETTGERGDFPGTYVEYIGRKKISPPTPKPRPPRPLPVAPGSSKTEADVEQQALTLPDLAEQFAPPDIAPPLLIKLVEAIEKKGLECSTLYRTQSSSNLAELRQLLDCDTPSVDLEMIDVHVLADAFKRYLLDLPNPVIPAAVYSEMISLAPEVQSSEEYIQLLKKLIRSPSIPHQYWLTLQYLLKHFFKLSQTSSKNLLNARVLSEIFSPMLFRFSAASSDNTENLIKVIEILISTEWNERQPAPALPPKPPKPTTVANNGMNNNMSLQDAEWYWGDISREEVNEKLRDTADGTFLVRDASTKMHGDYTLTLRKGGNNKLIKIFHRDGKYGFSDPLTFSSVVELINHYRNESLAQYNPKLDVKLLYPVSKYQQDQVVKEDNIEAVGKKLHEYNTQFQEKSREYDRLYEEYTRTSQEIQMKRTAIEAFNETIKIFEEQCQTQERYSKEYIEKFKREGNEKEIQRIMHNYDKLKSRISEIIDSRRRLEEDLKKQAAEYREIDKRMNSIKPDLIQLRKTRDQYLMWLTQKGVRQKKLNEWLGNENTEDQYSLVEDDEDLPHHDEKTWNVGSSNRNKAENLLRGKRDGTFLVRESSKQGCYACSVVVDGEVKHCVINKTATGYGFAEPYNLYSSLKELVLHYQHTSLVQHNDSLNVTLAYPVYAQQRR
SMILES,"IC50 [1, 3]",IC50 ([1]; read-out: PI3K α In Vitro IC50),other results
Nc1nc2cc(-c3ccc4ncn(C5CC5)c(=O)c4c3)ccc2o1 [compound 254],< 1 µM,–,"IC50 [2, 4]: < 1 µM"
Nc1nc2cc(-c3ccc4ncn(C5CCCC5)c(=O)c4c3)ccc2o1 [compound 256],< 10 µM,–,–
NC(=O)[C@@H]1CCCN1C(=O)c1cnc2ccc(-c3ccc4oc(N)nc4c3)cn12 [compound 259],< 1 µM,–,"IC50 [2, 4]: < 10 µM"
NC(=O)[C@H]1CCCN1C(=O)c1cnc2ccc(-c3ccc4oc(N)nc4c3)cn12 [compound 260],< 1 µM,–,"IC50 [2, 4]: < 10 µM"
CN1CCN(CCn2cnc3ccc(-c4ccc5oc(N)nc5c4)cc3c2=O)CC1 [compound 280],< 10 µM,–,–
Nc1nc2cc(-c3ccc4ncn(CCCN5CCOCC5)c(=O)c4c3)ccc2o1 [compound 290],< 1 µM,–,–
CN1CCN(CCCn2cnc3ccc(-c4ccc5oc(N)nc5c4)cc3c2=O)CC1 [compound 291],< 1 µM,–,–
CN(C)CCn1cnc2ccc(-c3ccc4oc(N)nc4c3)cc2c1=O [compound 292],< 10 µM,–,–
Cc1ccn(C2CCN(C(=O)c3cnc4ccc(-c5ccc6oc(N)nc6c5)cn34)CC2)n1 [compound 297],< 1 µM,–,"IC50 [2, 4]: < 10 µM"
CN(C)C1CCN(C(=O)c2cnc3ccc(-c4ccc5oc(N)nc5c4)cn23)CC1 [compound 304],< 1 µM,–,–
Nc1nc2ccc(-c3ccc4nnc(C(=O)N5CCCC5)n4c3)cc2o1 [compound 305],< 10 µM,–,–
Cc1nc(NC(=O)N2CCC[C@H]2C(N)=O)sc1-c1ccc2oc(N)nc2c1 [compound 311],< 1 µM,–,–
Nc1nc2cc(-c3ccc4ncc(N5CCC(n6cccn6)CC5)nc4c3)ccc2o1 [compound 337],< 0.1 µM,–,"IC50 [2, 4]: < 1 µM"
Nc1nc2cc(-c3ccc4ncc(C(=O)N5CC5)n4c3)ccc2o1 [compound 340],< 1 µM,–,"IC50 [2, 4]: < 1 µM"
Cc1cc2oc(N)nc2cc1-c1ccc2ncc(N3CC(N4CCOCC4)C3)nc2c1 [compound 353],< 10 µM,–,–
Nc1nc2cc(-c3ccc4ncc(C(=O)N5CCOCC5)n4c3)c(Cl)cc2o1 [compound 370],< 10 µM,–,–
Cc1c(-c2ccc3oc(N)nc3c2)ccc2ncc(N3CC(N4CCOCC4)C3)nc12 [compound 383],< 1 µM,–,–
Cc1c(-c2ccc3oc(N)nc3c2)ccc2ncc(N3CC(N4CCNCC4)C3)nc12 [compound 386],< 0.1 µM,–,–
CCN1CCN(c2cnc3ccc(-c4ccc5oc(N)nc5c4)cc3n2)C(=O)C1 [compound 391],< 10 µM,–,–
Nc1nc2cc(-c3ccc4ncc(N5CCN(CC6CC6)CC5=O)nc4c3)ccc2o1 [compound 393],< 10 µM,–,–

SMILES,"IC50 [1, 3]",IC50 ([1]; read-out: PI3K α In Vitro IC50),other results
CC(=O)Nc1cc2ccc(-c3cc(F)c4oc(N)nc4c3)cn2n1 [compound 401],–,–,IC50 ([2]; read-out: PI3K γ In Vitro IC50): < 10 µM
C[C@H]1CN(c2cc3cc(-c4ccc5oc(N)nc5c4)ccc3nc2N)CCN1 [compound 403],–,< 10 µM,–
O=C(c1cnc2ccc(-c3ccc4oc(NC5CC5)nc4c3)cn12)N1CCOCC1 [compound 409],–,< 10 µM,–
Nc1ncc(-c2ccc3ncc(C(=O)N4CCOCC4)n3c2)cc1C(F)(F)F [compound 410],–,< 10 µM,–
Nc1nc2nc(-c3ccc4ncc(C(=O)N5CCOCC5)n4c3)ccc2o1 [compound 412],–,< 10 µM,–
COc1ncc(-c2ccc3ncc(C(=O)N4CCOCC4)n3c2)cc1N [compound 414],–,< 10 µM,–
Nc1cc(-c2ccc3ncc(C(=O)N4CCOCC4)n3c2)cnc1Cl [compound 415],–,< 10 µM,–
Nc1nc2cc(-c3cc(F)c4ncc(C(=O)N5CCOCC5)n4c3)ccc2o1 [compound 438],–,< 10 µM,–
Nc1nc2ccc(-c3cc(F)c4ncc(C(=O)N5CCOCC5)n4c3)cc2o1 [compound 439],–,< 10 µM,–
COc1ccc(-c2ccc3ncc(C(=O)N4CCOCC4)n3c2)cc1S(=O)(=O)Nc1ccccc1 [compound 444],–,< 10 µM,–
CN1CCN(n2cnc3ccc(-c4ccc5oc(N)nc5c4)cc3c2=O)CC1 [compound 446],–,< 1 µM,–
O=C(c1cnc2ccc(-c3cncc(S(=O)(=O)Nc4ccccc4)c3)cn12)N1CCOCC1 [compound 447],–,< 10 µM,–
CNS(=O)(=O)c1cncc(-c2ccc3ncc(C(=O)N4CCOCC4)n3c2)c1 [compound 450],–,< 10 µM,–
CS(=O)(=O)Nc1cc(-c2ccc3ncc(C(=O)N4CCOCC4)n3c2)ccc1Cl [compound 460],–,< 10 µM,–
Nc1nsc2c(-c3ccc4ncc(C(=O)N5CCOCC5)n4c3)cccc12 [compound 474],–,< 10 µM,–
Nc1nc2cccc(-c3ccc4ncc(C(=O)N5CCOCC5)n4c3)c2s1 [compound 485],–,< 10 µM,–
Nc1nsc2cc(-c3ccc4ncc(C(=O)N5CCOCC5)n4c3)ccc12 [compound 489],–,< 10 µM,–
O=C(c1cnc2ccc(-c3cccc4[nH]ncc34)cn12)N1CCOCC1 [compound 506],–,< 0.1 µM,–
CC1(C)COCCN1C(=O)c1cnc2ccc(-c3ccc4oc(N)nc4c3)cn12 [compound 514],–,< 1 µM,–
O=C(c1cnc2ccc(-c3cnc(Cl)c4[nH]ncc34)cn12)N1CCOCC1 [compound 516],–,< 1 µM,–
